Measurements as given in patent US12527810B2, “Pharmaceutical composition, methods for treating and uses thereof” (Boehringer Ingelheim International GmbH, priority 2009, dated 2026).
One block for each compound: values may come before it.

How the values were obtained:
[1] = particle size distribution measurement by laser diffraction; format: physicochemical; conditions: milled active substance
Text: The value X90 refers to the 90% value of the volume distribution measured using a laser diffractometer. In other words, for the purposes of the present invention, the X90 value denotes the particle size below which 90% of the quantity of particles is found based on the volume distribution. Analogously the value X50 refers to the 50% value (median) of the volume distribution measured using a laser diffractometer. In other words, for the purposes of the present invention, the X50 value denotes the particle size below which 50% of the quantity of particles is found based on the volume distribution. Analogously the value X10 refers to the 10% value of the volume distribution measured using a laser diffractometer. In other words, for the purposes of the present invention, the X10 value denotes the particle size below which 10% of the quantity of particles is found based on the volume distribution.
Preferably all X90, X50, X10 values hereinbefore and hereinafter are by volume and determined by laser-diffraction method, in particular low angle laser light scattering, i.e. Fraunhofer diffraction. A preferred test is described in the experimental section. The laser diffraction method is sensitive to the volume of a particle and provides a volume-average particle size, which is equivalent to the weight-average particle size if the density is constant. The skilled artesian knows that the results of the particle size distribution determination by one technique can be correlated with that from another technique, for example on an empirical basis by routine experimentation. Alternatively the particle size distribution in the pharmaceutical composition or dosage form can be determined by microscopy, in particular electron microscopy or scanning electron microscopy.
Particle size distribution measurement is performed for example via light scattering or laser diffraction technique. To determine the particle size the powder is fed into a laser diffraction spectrometer for example by means of a dispersing unit. The test method is described below in detail: • Equipment: Laser Diffraction Spectrometer Sympatec HELOS Particle Sizer. • Lens: R31 (0.5/0.9 μm-175 μm) • Sample Dispersing Unit: Dry disperser RODOS/M • Vacuum: Nilfisk • Feeder: ASPIROS • Feed Velocity: 60.00 mm/s • Primary pressure: 2.00 bar • Injector depression: maximize (mbar)2 • Reference Measurement: 10 seconds • Cycle Time: 100 msec • Trigger Conditions: Start 0.0 seconds after optical concentration ≥1% valid always • Stop after 5.0 seconds optical concentration ≤1% or after 30 seconds real time • Optical Concentration: Approximately range 3-12% • Evaluation: HRLD • Sample Size: Approximately 100 mg • Number of measurements: 2 (duplicate)
The instrument is set up according to the manufacturer's recommendation and using the manufacturer provided software. The sample container is thoroughly mixed and tumbled prior to removing a portion of the sample to ensure that a representative sample is tested. Duplicate samples are prepared by using a spatula to transfer approximately 100 mg of a sample into the ASPIROS glass vials and cap the vials. The capped cials are placed into the feeder.

blood glucose = assay: oral glucose tolerance test in ZDF rats; format: in vivo, rat; conditions: oral glucose load 2 g/kg 30 min later
Experimental: According to a first example an oral glucose tolerance test is performed in overnight fasted 9-weeks old male Zucker Diabetic Fatty (ZDF) rats (ZDF/Crl-Lepr^fa). A pre-dose blood sample is obtained by tail bleed. Blood glucose is measured with a glucometer, and the animals are randomized for blood glucose (n=5/group). Subsequently, the groups receive a single oral administration of either vehicle alone (0.5% aqueous hydroxyethylcellulose containing 3 mM HCl and 0.015% Polysorbat 80) or vehicle containing the SGLT2 inhibitor. The animals receive an oral glucose load (2 g/kg) 30 min after compound administration. Blood glucose is measured in tail blood 30 min, 60 min, 90 min, 120 min, and 180 min after the glucose challenge. Glucose excursion is quantified by calculating the reactive glucose AUC. The data are presented as mean±SEM. The two-sided unpaired Student t-test is used for statistical comparison of the control group and the active groups.
Compound (I.9) (1-chloro-4-(β-D-glucopyranos-1-yl)-2-[4-((S)-tetrahydrofuran-3-yloxy)-benzyl]-benzene) was orally administered to ZDF rats at doses of 0.3 mg/kg, 3 mg/kg or 30 mg/kg body weight. Compound (I.9) reduced glucose excursion by 15% at 0.3 mg/kg (not significant), by 62% at 3 mg/kg (p<0.001) and by 89% at 30 mg/kg (p<0.001).

serum uric acid = assay: twelve week study of serum uric acid levels in patients with manifest type 2 diabetes mellitus; format: in vivo, human; conditions: type 2 diabetes patients; for serum uric acid level, 12 weeks: after 12 weeks
Experimental: In a twelve week study of patients with manifest type 2 diabetes mellitus serum uric acid levels were measured at baseline and every 4 weeks in patients randomized to an administration of the compound (I.9) of 5 mg, 10 mg, or 25 mg or placebo or metformin 2000 mg, daily for 12 weeks.

[2] = body weight in cafeteria-diet obese female Wistar rats; format: in vivo, rat; conditions: 28 days
Experimental: All experimental procedures concerning the use of laboratory animals were carried out under a Home Office Certificate of Designation. An animal model of obesity was used to study the effect of the compound (I.9) on body weight and total body fat content. For this, female Wistar rats were made obese by exposure to a simplified cafeteria diet containing high fat chow, chocolate and ground peanuts for approximately 24 weeks. Following the induction of obesity, rats were given vehicle (0.5% aqueous hydroxyethyl-cellulose) for 7 days and then dosed orally once daily with either vehicle or 3 mg/kg or 10 mg/kg compound (I.9) for 28 days. For the duration of the study rats were maintained on the cafeteria diet. Therein “Cpd A” denotes the glucopyranosyl-substituted benzene derivative (I.9) at a dose of 3 mg/kg or 10 mg/kg. Results are means (adjusted for differences between the body weights of the different treatment groups at baseline (Day 1))±SEM (calculated from the residuals of the statistical model), n=10. After 28 day daily oral treatment with the compound (I.9) a reduced body weight compared to the vehicle-treated control group was observed. Body weight data was analysed by analysis of covariance with body weights on Day 1 as covariate. […]

[3] = total body fat content (FoodScan NIR) in cafeteria-diet obese female Wistar rats; format: in vivo, rat; conditions: 10 mg/kg orally once daily, end of study Day 34, p<0.05
Experimental: All experimental procedures concerning the use of laboratory animals were carried out under a Home Office Certificate of Designation. An animal model of obesity was used to study the effect of the compound (I.9) on body weight and total body fat content. For this, female Wistar rats were made obese by exposure to a simplified cafeteria diet containing high fat chow, chocolate and ground peanuts for approximately 24 weeks. Following the induction of obesity, rats were given vehicle (0.5% aqueous hydroxyethyl-cellulose) for 7 days and then dosed orally once daily with either vehicle or 3 mg/kg or 10 mg/kg compound (I.9) for 28 days. […] Results are means (adjusted for differences between the body weights of the different treatment groups at baseline (Day 1))±SEM (calculated from the residuals of the statistical model), n=10. […] Body weight data was analysed by analysis of covariance with body weights on Day 1 as covariate. […]
At the end of the study on Day 34 (24 hours after the last treatment on Day 33) all rats were terminated, the body exsanguinated and the following tissues removed: the caudate liver lobe, the pancreas, the left kidney and one soleus muscle. Body composition (body fat, protein and water) was determined using the FoodScan NIR (near infra-red) meat analyser (Foss UK). […] Standard errors of the mean (SEM) are calculated from the residuals of the statistical model. […]

HbA1c = conditions: metformin on its own, in the diabetic; cited from earlier work

X10 (particle size, volume distribution) [1]: 1.8 μm
X50 (particle size, volume distribution) [1]: 18.9 μm
X90 (particle size, volume distribution) [1]: 45.3 μm
Structure (SMILES): OC[C@H]1O[C@@H](c2ccc(Cl)c(Cc3ccc(O[C@H]4CCOC4)cc3)c2)[C@H](O)[C@@H](O)[C@@H]1O [Active substance Batch 1]

X10 (particle size, volume distribution) [1]: 1.7 μm
X50 (particle size, volume distribution) [1]: 12.1 μm
X90 (particle size, volume distribution) [1]: 25.9 μm
Structure (SMILES): OC[C@H]1O[C@@H](c2ccc(Cl)c(Cc3ccc(O[C@H]4CCOC4)cc3)c2)[C@H](O)[C@@H](O)[C@@H]1O [Active substance Batch 2]

Structure (SMILES): OC[C@H]1O[C@@H](c2ccc(Cl)c(Cc3ccc(O[C@H]4CCOC4)cc3)c2)[C@H](O)[C@@H](O)[C@@H]1O [Compound (I.9), 1-chloro-4-(β-D-glucopyranos-1-yl)-2-[4-((S)-tetrahydrofuran-3-yloxy)-benzyl]-benzene]
reduction of glucose excursion (reactive glucose AUC) (blood glucose; single oral dose 0.3 mg/kg, not significant): 15%
reduction of glucose excursion (reactive glucose AUC) (blood glucose; single oral dose 3 mg/kg, p<0.001): 62%
reduction of glucose excursion (reactive glucose AUC) (blood glucose; single oral dose 30 mg/kg, p<0.001): 89%
serum uric acid level, baseline (serum uric acid; 5 mg daily group): 5.5 mg/dL
serum uric acid level, 12 weeks (serum uric acid; 5 mg daily): 5.0 mg/dL
serum uric acid level, baseline (serum uric acid; 10 mg daily group): 5.3 mg/dL
serum uric acid level, 12 weeks (serum uric acid; 10 mg daily): 4.7 mg/dL
serum uric acid level, baseline (serum uric acid; 25 mg daily group): 5.4 mg/dL
serum uric acid level, 12 weeks (serum uric acid; 25 mg daily): 4.7 mg/dL
reduction in serum uric acid levels compared to baseline (serum uric acid; all doses (5 mg, 10 mg, 25 mg daily), 12 weeks): 0.5 to 0.7 mg/dL
reduction of body weight versus vehicle control ([2]; 3 mg/kg orally once daily): 4.1%
reduction of body weight versus vehicle control ([2]; 10 mg/kg orally once daily, significant (p<0.05)): 6.9%
total body fat content (weight per rat) in comparison to vehicle-treated animals [3]: significantly lower

Structure (SMILES): CN(C)C(=N)N=C(N)N [Metformin, reference compound]
serum uric acid level, baseline (serum uric acid; 2000 mg daily group): 5.6 mg/dL
change of serum uric acid levels compared to baseline (serum uric acid; 2000 mg daily, 12 weeks): increased
serum uric acid level, 12 weeks (serum uric acid; 2000 mg daily): 6.2 mg/dL
average improvement in the HbA1c value (HbA1c): 1.0-1.5%
